HELM strings list units from the 5' end as sugar, base in round brackets, then linkage (d deoxyribose, r ribose, m 2'-O-methyl, p phosphodiester). Strings are as the collection lists them, not checked against the first reports. ss, as = sense and antisense strand; [lna] = locked nucleic acid (LNA); [fl2r] = 2'-fluoro
Conditions: siRNA
Further: test system not given here.

Substance	target mRNA knockdown
RNA1{[fl2r](C)p.r(C)p.[fl2r](C)p.r(U)p.[fl2r](C)p.r(C)p.[fl2r](C)p.r(C)p.[fl2r](U)p.r(G)p.[fl2r](U)p.r(C)p.[fl2r](C)p.r(C)p.[fl2r](C)p.r(G)p.[fl2r](C)p.r(U)p.[fl2r](U)p.r(T)p.r(T)}|RNA2{[fl2r](A)p.[fl2r](A)p.r(G)p.r(C)p.r(G)p.r(G)p.r(G)p.r(G)p.[fl2r](A)p.r(C)p.[fl2r](A)p.r(G)p.r(G)p.r(G)p.r(G)p.[fl2r](A)p.r(G)p.r(G)p.r(G)p.r(T)p.r(T)}$$$RNA1{StrandType:ss}|RNA2{StrandType:as}$	41%
RNA1{[fl2r](C)p.r(C)p.[fl2r](G)p.r(A)p.[fl2r](A)p.r(G)p.[fl2r](A)p.r(C)p.[fl2r](G)p.r(A)p.[fl2r](A)p.r(G)p.[fl2r](C)p.r(U)p.[fl2r](A)p.r(U)p.[fl2r](G)p.r(A)p.[fl2r](A)p.r(T)p.r(T)}|RNA2{r(U)p.r(U)p.r(C)p.r(A)p.r(U)p.r(A)p.[fl2r](G)p.r(C)p.r(U)p.r(U)p.r(C)p.[fl2r](G)p.r(U)p.r(C)p.r(U)p.r(U)p.r(C)p.[fl2r](G)p.[fl2r](G)p.r(T)p.r(T)}$$$RNA1{StrandType:ss}|RNA2{StrandType:as}$	23%
RNA1{[fl2r](C)p.r(G)p.[fl2r](A)p.r(A)p.[fl2r](A)p.r(G)p.[fl2r](U)p.r(G)p.[fl2r](U)p.r(A)p.[fl2r](U)p.r(C)p.[fl2r](C)p.r(G)p.[fl2r](A)p.r(A)p.[fl2r](G)p.r(A)p.[fl2r](C)p.r(T)p.r(T)}|RNA2{[fl2r](G)p.r(U)p.r(C)p.r(U)p.r(U)p.r(C)p.[fl2r](G)p.[fl2r](G)p.r(A)p.r(U)p.r(A)p.r(C)p.r(A)p.r(C)p.r(U)p.r(U)p.r(U)p.r(C)p.[fl2r](G)p.r(T)p.r(T)}$$$RNA1{StrandType:ss}|RNA2{StrandType:as}$	41%
RNA1{[fl2r](C)p.r(G)p.[fl2r](A)p.r(C)p.[fl2r](G)p.r(A)p.[fl2r](U)p.r(U)p.[fl2r](C)p.r(U)p.[fl2r](U)p.r(C)p.[fl2r](U)p.r(A)p.[fl2r](C)p.r(U)p.[fl2r](C)p.r(A)p.[fl2r](A)p.r(T)p.r(T)}|RNA2{r(U)p.r(U)p.r(G)p.r(A)p.r(G)p.r(U)p.r(A)p.r(G)p.r(A)p.r(A)p.r(G)p.r(A)p.r(A)p.r(U)p.r(C)p.r(G)p.r(U)p.r(C)p.r(G)p.r(T)p.r(T)}$$$RNA1{StrandType:ss}|RNA2{StrandType:as}$	56%
RNA1{[fl2r](C)p.r(G)p.[fl2r](G)p.r(G)p.[fl2r](U)p.r(A)p.[fl2r](C)p.r(G)p.[fl2r](A)p.r(G)p.[fl2r](C)p.r(C)p.[fl2r](G)p.r(G)p.[fl2r](A)p.r(A)p.[fl2r](C)p.r(C)p.r(U)p.r(T)p.r(T)}|RNA2{r(A)p.r(G)p.r(G)p.r(U)p.r(U)p.r(C)p.r(C)p.r(G)p.r(G)p.r(C)p.r(U)p.r(C)p.r(G)p.r(U)p.r(A)p.r(C)p.r(C)p.r(C)p.r(G)p.r(T)p.r(T)}$$$RNA1{StrandType:ss}|RNA2{StrandType:as}$	61%
RNA1{[fl2r](C)p.r(U)p.[fl2r](A)p.r(G)p.[fl2r](A)p.r(G)p.[fl2r](G)p.r(A)p.[fl2r](U)p.r(C)p.[fl2r](U)p.r(U)p.[fl2r](G)p.r(A)p.[fl2r](A)p.r(G)p.[fl2r](A)p.r(C)p.[fl2r](C)p.r(T)p.r(T)}|RNA2{[fl2r](G)p.[fl2r](G)p.r(U)p.r(C)p.r(U)p.r(U)p.r(C)p.r(A)p.r(A)p.[fl2r](G)p.r(A)p.r(U)p.r(C)p.r(C)p.r(U)p.r(C)p.r(U)p.r(A)p.[fl2r](G)p.r(T)p.r(T)}$$$RNA1{StrandType:ss}|RNA2{StrandType:as}$	38%
RNA1{[fl2r](C)p.r(U)p.[fl2r](A)p.r(G)p.[fl2r](A)p.r(G)p.[fl2r](G)p.r(A)p.[fl2r](U)p.r(C)p.[fl2r](U)p.r(U)p.[fl2r](G)p.r(A)p.[fl2r](A)p.r(G)p.[fl2r](A)p.r(C)p.r(C)p.r(T)p.r(T)}|RNA2{r(G)p.r(G)p.r(U)p.r(C)p.r(U)p.r(U)p.r(C)p.r(A)p.r(A)p.r(G)p.r(A)p.r(U)p.r(C)p.r(C)p.r(U)p.r(C)p.r(U)p.r(A)p.r(G)p.r(T)p.r(T)}$$$RNA1{StrandType:ss}|RNA2{StrandType:as}$	61%
RNA1{[fl2r](C)p.r(U)p.[fl2r](C)p.r(U)p.[fl2r](C)p.r(C)p.[fl2r](U)p.r(A)p.[fl2r](C)p.r(C)p.[fl2r](U)p.r(U)p.[fl2r](C)p.r(U)p.[fl2r](C)p.r(C)p.[fl2r](U)p.r(C)p.[fl2r](U)p.r(T)p.r(T)}|RNA2{r(A)p.r(G)p.r(A)p.r(G)p.r(G)p.r(A)p.r(G)p.r(A)p.r(A)p.r(G)p.r(G)p.r(U)p.r(A)p.r(G)p.r(G)p.r(A)p.r(G)p.r(A)p.r(G)p.r(T)p.r(T)}$$$RNA1{StrandType:ss}|RNA2{StrandType:as}$	69%
RNA1{[fl2r](C)p.r(U)p.[fl2r](G)p.r(A)p.[fl2r](C)p.r(C)p.[fl2r](G)p.r(G)p.[fl2r](A)p.r(A)p.[fl2r](G)p.r(C)p.[fl2r](G)p.r(C)p.[fl2r](U)p.r(U)p.[fl2r](A)p.r(A)p.[fl2r](A)p.r(T)p.r(T)}|RNA2{r(U)p.r(U)p.r(U)p.[fl2r](A)p.[fl2r](A)p.r(G)p.r(C)p.r(G)p.r(C)p.r(U)p.r(U)p.r(C)p.r(C)p.r(G)p.r(G)p.r(U)p.r(C)p.[fl2r](A)p.r(G)p.r(T)p.r(T)}$$$RNA1{StrandType:ss}|RNA2{StrandType:as}$	59%
RNA1{[fl2r](G)p.m(A)p.[fl2r](C)p.m(G)p.[fl2r](U)p.m(A)p.[fl2r](A)p.m(A)p.[fl2r](C)p.m(G)p.[fl2r](G)p.m(C)p.[fl2r](C)p.m(A)p.[fl2r](C)p.m(A)p.[fl2r](A)p.m(G)p.[fl2r](U)p.m(U)p.[fl2r](C)}|RNA2{[fl2r](A)p.m(C)p.[fl2r](U)p.m(U)p.[fl2r](G)p.m(U)p.[fl2r](G)p.m(G)p.[fl2r](C)p.m(C)p.[fl2r](G)p.m(U)p.[fl2r](U)p.m(U)p.[fl2r](A)p.m(C)p.[fl2r](G)p.m(U)p.[fl2r](C)p.m(G)p.[fl2r](C)}$$$RNA1{StrandType:ss}|RNA2{StrandType:as}$	23.8%
RNA1{[fl2r](G)p.m(A)p.[fl2r](C)p.m(G)p.[fl2r](U)p.m(A)p.[fl2r](A)p.m(A)p.[fl2r](C)p.m(G)p.[fl2r](G)p.m(C)p.[fl2r](C)p.m(A)p.[fl2r](C)p.m(A)p.[fl2r](A)p.m(G)p.[fl2r](U)p.m(U)p.[fl2r](C)}|RNA2{r(A)p.m(C)p.r(U)p.r(U)p.r(G)p.r(U)p.r(G)p.r(G)p.r(C)p.r(C)p.r(G)p.r(U)p.r(U)p.r(U)p.r(A)p.r(C)p.r(G)p.r(U)p.r(C)p.r(G)p.r(C)}$$$RNA1{StrandType:ss}|RNA2{StrandType:as}$	46.2%
RNA1{[fl2r](G)p.m(A)p.[fl2r](C)p.m(G)p.[fl2r](U)p.m(A)p.[fl2r](A)p.m(A)p.[fl2r](C)p.m(G)p.[fl2r](G)p.m(C)p.[fl2r](C)p.m(A)p.[fl2r](C)p.m(A)p.[fl2r](A)p.m(G)p.[fl2r](U)p.m(U)p.[fl2r](C)}|RNA2{r(A)p.r(C)p.[lna](T)p.r(U)p.r(G)p.[lna](T)p.r(G)p.r(G)p.r(C)p.r(C)p.r(G)p.r(U)p.r(U)p.[lna](T)p.r(A)p.r(C)p.r(G)p.[lna](T)p.r(C)p.[lna](G)p.[lna](C)}$$$RNA1{StrandType:ss}|RNA2{StrandType:as}$	1.5%

Reference: the OligoGym collection
